Measured values reported in paper PMC10013830 (Molecular Plant Pathology, 2023).
“Also recorded” adds a separate entry of the source.

Assays:
[1] = test system: XccR binding to the luxXc box; test: EMSA: effect of sugars on binding of XccR to the luxXc box; settings: XccR-MBP, increasing sugar concentrations (glucose 0.005-5 μM)
[2] = target: T1, XccR-SUMO (Xanthomonas campestris pv. campestris, UniProt B0RQF7); test: MST binding of glucose to XccR-SUMO
T1 sequence (B0RQF7 1-272): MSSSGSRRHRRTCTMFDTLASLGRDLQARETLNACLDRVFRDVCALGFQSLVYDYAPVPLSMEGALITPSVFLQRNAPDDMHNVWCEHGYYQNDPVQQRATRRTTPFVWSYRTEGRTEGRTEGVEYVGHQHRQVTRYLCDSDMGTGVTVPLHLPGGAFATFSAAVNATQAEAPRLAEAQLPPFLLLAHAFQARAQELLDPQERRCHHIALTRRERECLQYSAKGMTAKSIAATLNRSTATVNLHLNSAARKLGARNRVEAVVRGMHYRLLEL

[3] = target: T2, TraR (Agrobacterium tumefaciens, UniProt P33905); test: MST TraR–glucose interaction; type: binding; settings: Figure S7c
T2 sequence (P33905 1-234): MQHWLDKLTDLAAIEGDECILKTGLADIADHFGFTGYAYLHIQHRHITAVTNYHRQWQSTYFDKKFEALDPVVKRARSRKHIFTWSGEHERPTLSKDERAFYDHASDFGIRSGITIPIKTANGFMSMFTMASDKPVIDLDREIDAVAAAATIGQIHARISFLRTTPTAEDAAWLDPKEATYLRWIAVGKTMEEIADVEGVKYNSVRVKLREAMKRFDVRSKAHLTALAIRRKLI

[4] = target: T3, LasR (Pseudomonas aeruginosa, UniProt P25084); test: MST LasR–glucose interaction; type: binding; settings: Figure S7d
T3 sequence (P25084 1-239): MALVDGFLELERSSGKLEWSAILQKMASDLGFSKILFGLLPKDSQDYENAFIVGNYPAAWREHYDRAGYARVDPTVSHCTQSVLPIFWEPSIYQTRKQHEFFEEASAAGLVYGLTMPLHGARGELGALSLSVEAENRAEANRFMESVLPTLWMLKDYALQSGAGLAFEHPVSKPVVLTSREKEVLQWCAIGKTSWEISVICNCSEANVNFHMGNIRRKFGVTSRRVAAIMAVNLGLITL

[5] = test system: pip promoter (Xcc 8008, pip-GUS reporter); type: cell-based, Xanthomonas campestris pv. campestris
[6] = test system: pip promoter (Xcc 8008 reporter strain); type: in vivo, Xanthomonas campestris pv. campestris in Arabidopsis; settings: Atsweet2‐3‐2 and Atsweet15‐4‐7 mutant plants, bacterial suspension supplemented with glucose before infection
[7] = target: T4, XccR-MBP (Xanthomonas campestris pv. campestris, UniProt B0RQF7); test: Isothermal titration calorimetry of XccR-MBP with glucose; type: binding; settings: XccR-MBP 10 μM titrated with 100 μM glucose
T4 sequence (B0RQF7 1-272): T1 sequence (B0RQF7 1-272)

[8] = target: T4, XccR-MBP; test: Microscale thermophoresis

**Q.** For `OC[C@H]1O[C@@](CO)(O[C@H]2O[C@H](CO)[C@@H](O)[C@H](O)[C@H]2O)[C@@H](O)[C@@H]1O` [sucrose], which “Effect on binding of XccR to the luxXc box” value (“Effect on binding of XccR” below) [1] is on record?
**A.** did not enhance

**Q.** How did the Kd [2] turn out when `OC[C@H]1OC(O)[C@H](O)[C@@H](O)[C@@H]1O` (stereo partly shown) [glucose, D‐glucose] was run?
**A.** 242 nM

**Q.** What about the “TraR–glucose interaction” value [3] of the same molecule?
**A.** did not interact

**Q.** And the “LasR–glucose binding” value [4]?
**A.** did not bind

**Q.** And the “GUS activity driven by the pip promoter” value [5]?
**A.** increase; also recorded: promoted

**Q.** And the “pip promoter-driven GUS activity in planta” value [6]?
**A.** restored to the wild‐type level

**Q.** And the “Binding of XccR with glucose by ITC” value [7]?
**A.** supported by the ITC results

**Q.** And the “Effect on binding of XccR” value [1]?
**A.** enhanced

**Q.** What about the Kd [8] of the same molecule?
**A.** 252 nM

**Q.** What does the source list for `O=CC[C@@H](O)[C@H](O)[C@H](O)CO` [2‐deoxyglucose, 2‐deoxy‐D‐glucose, reference compound]?
**A.** GUS activity driven by the pip promoter [5]: promoted; Effect on binding of XccR to the luxXc box [1]: enhanced

**Q.** Which “Effect on binding of XccR” value [1] does the source give for `O=C(CO)[C@@H](O)[C@H](O)[C@H](O)CO` [fructose] here?
**A.** did not enhance

**Q.** Which “Effect on binding of XccR” value [1] does the source give for `O=C[C@H](O)[C@@H](O)[C@H](O)[C@H](O)COP(=O)(O)O` [glucose 6‐phosphate, D‐glucose 6‐phosphate] here?
**A.** did not enhance
